Experimental data as given in patent publication US20130303497A1, “DEUTERATED 5-HT1A RECEPTOR AGONISTS” (priority 2010, published 2013).
Read-outs that look alike come from different tables or passages of the source.

Key:
human plasma proteins = assay: Plasma protein binding, equilibrium dialysis; type: in vitro ADME; details: for degree of protein binding in human plasma compared to tandospirone: One-way ANOVA with Dunnett's test vs Tandospirone
Protocol: (§1) Human plasma was obtained from Bioreclamation (Lot No. BRH354026). A 96-Well Micro-equilibrium Dialysis Device (HT-Dialysis LLC, Model HTD 96 b) separated by dialysis membrane (MWCO 12-14k, HT Dialysis), was used to study the protein binding. The dialysis membrane strips were soaked in distilled water for 1 hour and then in 20% ethanol in water (v/v) for another 20 minutes. The membrane strips were subsequently rinsed 20 min in pure water before use. The studied compounds were individually spiked into human plasma to a final concentration of 0.2 μM, and pre-incubated for 30 min. Aliquots (150 μL) of phosphate buffer (100 mM sodium phosphate, pH 7.4) and spiked plasma was placed in the receiver and donor compartment, respectively. The dialysis block was sealed and placed in a shaker (150 rpm) for 6 hours at 37° C. Each experiment was performed in triplicates (n=3). Aliquot 50 μL from both the donor sides and receiver sides of the dialysis devise was transferred into new sample preparation plates and mixed with the aliquots with same volume of opposite matrixes (blank buffer to plasma and visa verse). […] Hundred μL of the supernatant was transferred to a new 96-well plate and mixed with 200 μL of Milli-Q water containing 0.1% FA. Drug content was quantified with LC/MS/MS (Sciex API4000).
(§2) Percent bound to plasma is calculated as follows:
(§3) % Bound=100−(100×[Receiver]6h/[Donor]6h.) Equation 2
(§4) Mass recovery of test compound from the HTDialysis after 6 h is calculated as follows:
(§5) % Recovery=100×([Donor]6h+[Receiver]6h)/[Donor]0h Equation 3

[1] = Plasma protein binding, equilibrium dialysis; type: in vitro ADME; details: human plasma dialysed against phosphate buffer, pH 7.4, mass recovery from the dialysis device
Protocol: as §1, §2, §3, §4, §5

in vitro = details: pH 7.4
Protocol: The mixture of compound and microsome was pre-incubated for 30 minutes, initiating the reaction by addition of NADPH regenerating system (1 unit/mL Isocitric dehydrogenase). At time point 0, 5, 15, 30, 45 and 60 minutes the reactions were stopped by addition of 300 μL cold acetonitrile ([…]) containing 100 ng/mL tolbutamide as internal standard (IS). The samples were immediately mixed and centrifuged at 4000 rpm for 20 min. 100 μL supernatant was transferred to a fresh 96-well containing 300 μL HPLC-grade water for quantitative analysis by LC-MS/MS (LC: Shimatzu LC 10 AD; MS/MS detection: Sciex API4000), using positive ion electrospray. Triplicate experiments (n=3) was performed for each compound. A single-exponential curve (Ct=C0*e^−kt) was fitted to the concentration-time data points to calculate the elimination rate constant (k). The following equation 1 was used to calculate the total hepatic intrinsic clearance (CLint): […]

[2] = Permeability over MDR1-transfected MDCK cell monolayer; type: in vitro ADME, Canine; details: dog; MDR1-MDCK cell monolayer, 2 μM, 150-minute incubation, apical to basolateral
Protocol: (§6) The ability of molecules to pass a biological membrane, like the gastro-intestinal epithelia and the blood-brain barrier endothelia is essential for orally delivered drugs targeting diseases in the brain. The Madin-Darby Canine Kidney (MDCK) cell line is used as an industry standard to evaluate biomembrane passage properties of drugs. […] Test compounds were diluted with the transport buffer (HBSS+1% BSA) from a 10 mM stock solution to a concentration of 2 μM and applied to the apical (A) or basolateral (B) side of the cell monolayer.
(§7) In addition, the efflux ratio of each compound was also determined.
(§8) The apparent biomembrane permeability coefficient Papp (cm/s) was calculated using the equation:
(§9) Papp=(dCr/dt)×Vr/(A×C0) Equation 4
(§10) Where dCr/dt is the cumulative concentration of compound in the receiver chamber as a function of time (μM/s); Vr is the solution volume in the receiver chamber (0.075 mL on the apical side, 0.25 mL on the basolateral side); A is the surface area for the transport, i.e. 0.084 cm2 for the area of the monolayer; Co is the initial concentration in the donor chamber.
(§11) The efflux ratio was calculated using the equation:
(§12) Efflux Ratio=Papp(BA)/Papp(AB) Equation 5
(§13) Percent recovery was calculated using the equation:
(§14) % Recovery=100×[(Vr×Cr)+(Vd×Cd)]/(Vd×C0) Equation 6
(§15) Where Vd is the volume in the donor chambers (0.075 mL on the apical side, 0.25 mL on the basolateral side); Cd and Cr are the final concentrations of transport compound in donor and receiver chambers, respectively.

MDR1 (P-gp) = assay: as above; type: in vitro ADME, Canine; details: dog, donor and receiver chamber, MDR1-MDCK monolayer, 2 μM
Protocol: as §6, §7, §8, §9, §10, §11, §12, §13, §14, §15

plasma proteins = details: Miller et al., 1992; cited from earlier work
[3] = in humans; Nakashima and Kanemaru 1992; cited from earlier work
MDR1-MDCK cell monolayer = assay: Permeability over MDR1-transfected MDCK cell monolayer; type: in vitro ADME, Canine
Protocol: as §6, §7, §8, §9, §10, §11, §12, §13, §14, §15

[4] = target: serotonin 5-HT1A receptor; details: Hamik et al. 1990; read-out: Ki affinity value; cited from earlier work
[5] = system: serotonin 5-HT1A receptor; details: partial agonist; Tanaka et al. 1995 and Yabuuchi et al. 2004; cited from earlier work
[6] = pH 7.4, 0.2 μM, equilibrium dialysis, 37° C., n=3, read-out: Protein binding (%) (converted)

[2H]C([2H])(CN1C(=O)[C@@H]2[C@@H]3CC[C@@H](C3)[C@@H]2C1=O)C([2H])([2H])C([2H])([2H])N1CCN(c2ncccn2)CC1 [XVIII, (1R,2R,6S,7S)-4-{4-[4-(pyrimidin-2-yl)piperazin-1-yl]-(2,2,3,3,4,4-^2H6)butyl}-4-azatricyclo[5.2.1.0^2,6]decane-3,5-dione]
degree of protein binding in human plasma compared to tandospirone (human plasma proteins): statistically significant lower degree of protein binding | fraction unbound at 6 h, 0.2 μM (human plasma proteins; [6]): 0.47 | recovery at 6 h, 0.2 μM [1]: 111% | CLint scaled at 1 μM (in vitro; human, microsomes): 224 mL/min/kg

O=C(O)Cc1ccccc1Nc1c(Cl)cccc1Cl [Diclofenac, reference compound]
CLint scaled at 1 μM (in vitro; human, microsomes): 90 mL/min/kg

[2H]c1cnc(N2CCN(C([2H])([2H])CCCN3C(=O)[C@@H]4[C@H](C3=O)[C@H]3C[C@@H]4C([2H])C3[2H])CC2)nc1 (stereo partly drawn) [VII, (1R,2R,6S,7S)-4-{4-[4-((5-^2H)pyrimidin-2-yl)piperazin-1-yl]-(4,4-^2H2)butyl}-(8,9-^2H2)-4-azatricyclo[5.2.1.0^2,6]decane-3,5-dione]
fraction unbound at 6 h, 0.2 μM (human plasma proteins; [6]): 0.31 | recovery at 6 h, 0.2 μM [1]: 94% | CLint scaled at 1 μM (in vitro; human, microsomes): 231 mL/min/kg

CC(Cc1ccc(O)cc1)NCC(O)c1cc(O)cc(O)c1 (stereo not drawn) [Fenoterol]
Papp A→B at 150 min, 2 μM [2]: 0.92 ×10⁻⁶ cm/s | recovery at 150 min, 2 μM (MDR1 (P-gp)): 109%

[2H]C([2H])(CCCN1C(=O)[C@@H]2[C@@H]3CC[C@@H](C3)[C@@H]2C1=O)N1CCN(c2ncccn2)CC1 [Compound II, (1R,2R,6S,7S)-4-{4-[4-(pyrimidin-2-yl)piperazin-1-yl]-(4,4-^2H2)butyl}-4-azatricyclo[5.2.1.0^2,6]decane-3,5-dione]
degree of protein binding in human plasma compared to tandospirone (human plasma proteins): statistically significant lower degree of protein binding | fraction unbound at 6 h, 0.2 μM (human plasma proteins; [6]): 0.42 | recovery at 6 h, 0.2 μM [1]: 95% | CLint scaled at 1 μM (in vitro; human, microsomes): 235 mL/min/kg

O=C1[C@@H]2[C@H]3CC[C@H](C3)[C@@H]2C(=O)N1CCCCN1CCN(c2ncccn2)CC1 [Tandospirone, (1R,2R,6S,7S)-4-{4-[4-(pyrimidin-2-yl)piperazin-1-yl]butyl}-4-azatricyclo[5.2.1.0^2,6]decane-3,5-dione]
Papp A→B at 150 min, 2 μM [2]: 30 ×10⁻⁶ cm/s | recovery at 150 min, 2 μM (MDR1 (P-gp); MDCK-MDR1 cell monolayer): 107% | Protein binding (%) (human plasma proteins; 0.2 μM, equilibrium dialysis, 37° C., n=3): 70% | fraction unbound at 6 h, 0.2 μM (human plasma proteins; human, pH 7.4, read-out: observed unbound fraction): 0.3 | recovery at 6 h, 0.2 μM [1]: 82% | unbound fraction reported in the literature (plasma proteins): 30.4% | elimination half-life in the systemic circulation [3]: 1 to 2 h | CLint scaled at 1 μM (in vitro; human, microsomes): 282 mL/min/kg

C[C@]12CC[C@H]3[C@@H](CCC4=CC(=O)CC[C@@]43C)[C@@H]1CC[C@@H]2O [Testosterone, reference compound]
CLint scaled at 1 μM (in vitro): 70 mL/min/kg

[2H]C1C([2H])[C@@H]2C[C@H]1[C@@H]1C(=O)N(CCCC([2H])([2H])N3CCN(c4ncccn4)CC3)C(=O)[C@@H]12 (stereo partly drawn) [VI, (1R,2R,6S,7S)-4-{4-[4-(pyrimidin-2-yl)piperazin-1-yl]-(4,4-^2H2)butyl}-(8,9-^2H2)-4-azatricyclo[5.2.1.0^2,6]decane-3,5-dione]
degree of protein binding in human plasma compared to tandospirone (human plasma proteins): statistically significant lower degree of protein binding | fraction unbound at 6 h, 0.2 μM (human plasma proteins; [6]): 0.43 | recovery at 6 h, 0.2 μM [1]: 96% | CLint scaled at 1 μM (in vitro; human, microsomes): 240 mL/min/kg

CC(C)NCC(O)COc1cccc2ccccc12 (stereo not drawn) [Propranolol]
B-A/A-B efflux ratio (MDR1-MDCK cell monolayer; MDR1-MDCK cell monolayer, 2 μM): 62 | Papp, A-B (×10^−6 cm/s) (MDR1-MDCK cell monolayer; MDR1-MDCK cell monolayer, 2 μM, 150-minute incubation, apical to basolateral): 15 ×10^−6 cm/s

[2H]C([2H])(CCCN1C(=O)[C@@]2([2H])[C@H]3CC[C@H](C3)[C@@]2([2H])C1=O)N1CCN(c2ncccn2)CC1 [Compound XV, (1R,2R,6S,7S)-4-{4-[4-(pyrimidin-2-yl)piperazin-1-yl]-(4-^2H2)butyl}-(2,6-^2H2)-4-azatricyclo[5.2.1.0^2,6]decane-3,5-dione]
fraction unbound at 6 h, 0.2 μM (human plasma proteins; [6]): 0.38 | recovery at 6 h, 0.2 μM [1]: 92% | CLint scaled at 1 μM (in vitro; human, microsomes): 229 mL/min/kg

[2H]c1cnc(N2CCN(C([2H])CCCN3C(=O)[C@@H]4[C@@H]5CC[C@@H](C5)[C@@H]4C3=O)CC2)nc1 (stereo partly drawn) [IX, (1R,2R,6S,7S)-4-{4-[4-((5-^2H)pyrimidin-2-yl)piperazin-1-yl]-(4-^2H)butyl}-4-azatricyclo[5.2.1.0^2,6]decane-3,5-dione]
degree of protein binding in human plasma compared to tandospirone (human plasma proteins): statistically significant lower degree of protein binding

O=C1[C@@H]2[C@@H]3CC[C@@H](C3)[C@@H]2C(=O)N1CCCCN1CCN(c2ncccn2)CC1 [Tandospirone, (1R,2R,6S,7S)-4-{4-[4-(pyrimidin-2-yl)piperazin-1-yl]butyl}-4-azatricyclo[5.2.1.0^2,6]decane-3,5-dione]
Ki [4]: 0.027 ± 0.005 µM | intrinsic activity [5]: 55-85%

[2H]c1cnc(N2CCN(C([2H])([2H])CCCN3C(=O)[C@@H]4[C@@H]5CC[C@@H](C5)[C@@H]4C3=O)CC2)nc1 [Compound III, (1R,2R,6S,7S)-4-{4-[4-((5-^2H)pyrimidin-2-yl)piperazin-1-yl]-(4,4-^2H2)butyl}-4-azatricyclo[5.2.1.0^2,6]decane-3,5-dione]
Papp A→B at 150 min, 2 μM [2]: 35 ×10⁻⁶ cm/s | Papp, A-B compared to tandospirone (MDR1-MDCK cell monolayer; P<0.05, One-way ANOVA with Dunnett's test): statistically significant higher Papp, A-B | recovery at 150 min, 2 μM (MDR1 (P-gp); MDCK-MDR1 cell monolayer): 112% | degree of protein binding in human plasma compared to tandospirone (human plasma proteins): statistically significant lower degree of protein binding | fraction unbound at 6 h, 0.2 μM (human plasma proteins; [6]): 0.51 | recovery at 6 h, 0.2 μM [1]: 86% | CLint scaled at 1 μM (in vitro; human, microsomes): 219 mL/min/kg
